# From US20250092046A1, “TYROSINE KINASE INHIBITORS” (THE UNIVERSITY COURT OF THE UNIVERSITY OF EDINBURGH, priority 2021, published 2025)
# Tests used:
# EGFR = EGFR (Homo sapiens, UniProt P00533); experiment: Kinase screening assay (mobility shift, LabChip); type: biochemical; conditions: 0.5 micromolar compound
# Method: (§1) A 4× Substrate/ATP/Metal (1 […], 5 mmol/L Mg^2+) solution was prepared with buffer (20 mmol/L HEPES, 0.01% Triton X-100, 5 mmol/L DTT, pH 7.5), and a 2× kinase solution was also prepared with buffer (20 mmol/L HEPES, 0.01% Triton X-100, 1 mmol/L DTT, pH 7.5). 5 μL of 4× compound solution, 5 μL of 4× Substrate/ATP/Metal solution, and 10 μL of 2× kinase solution were mixed and incubated in a well of polypropylene 384 well microplate for 1 hour at room temperature. 70 μL of Termination Buffer (QuickScout Screening Assist MSA) was added to the well. The reaction mixture was applied to LabChip™ system, and the product and substrate peptide peaks were separated and quantitated.
# FGR = FGR (Homo sapiens, UniProt P09769); experiment: Kinase screening assay (mobility shift, LabChip); type: biochemical; conditions: 0.5 micromolar compound
# Chain of FGR (P09769 whole entry): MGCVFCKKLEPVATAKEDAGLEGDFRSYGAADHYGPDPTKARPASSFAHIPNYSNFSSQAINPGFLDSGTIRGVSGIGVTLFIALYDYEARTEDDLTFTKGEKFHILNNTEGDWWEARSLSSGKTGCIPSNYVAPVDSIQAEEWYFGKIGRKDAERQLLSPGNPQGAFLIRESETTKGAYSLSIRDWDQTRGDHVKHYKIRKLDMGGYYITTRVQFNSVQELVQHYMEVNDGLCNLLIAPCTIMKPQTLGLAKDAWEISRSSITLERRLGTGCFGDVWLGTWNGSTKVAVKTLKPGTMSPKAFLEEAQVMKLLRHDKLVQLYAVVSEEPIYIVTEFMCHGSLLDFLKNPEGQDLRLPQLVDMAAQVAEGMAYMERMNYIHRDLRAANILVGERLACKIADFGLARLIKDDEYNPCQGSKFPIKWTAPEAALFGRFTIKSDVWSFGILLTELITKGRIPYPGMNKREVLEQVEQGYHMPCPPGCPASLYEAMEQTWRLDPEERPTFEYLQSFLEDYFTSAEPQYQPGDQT
# Method: as §1
# FYNa = FYNa (Homo sapiens, UniProt P06241); experiment: Kinase screening assay (mobility shift, LabChip); type: biochemical; conditions: 0.5 micromolar compound
# Method: as §1
# HCK = HCK (Homo sapiens, UniProt P08631); experiment: Kinase screening assay (mobility shift, LabChip); type: biochemical; conditions: 0.5 micromolar compound
# Chain of HCK (P08631 whole entry): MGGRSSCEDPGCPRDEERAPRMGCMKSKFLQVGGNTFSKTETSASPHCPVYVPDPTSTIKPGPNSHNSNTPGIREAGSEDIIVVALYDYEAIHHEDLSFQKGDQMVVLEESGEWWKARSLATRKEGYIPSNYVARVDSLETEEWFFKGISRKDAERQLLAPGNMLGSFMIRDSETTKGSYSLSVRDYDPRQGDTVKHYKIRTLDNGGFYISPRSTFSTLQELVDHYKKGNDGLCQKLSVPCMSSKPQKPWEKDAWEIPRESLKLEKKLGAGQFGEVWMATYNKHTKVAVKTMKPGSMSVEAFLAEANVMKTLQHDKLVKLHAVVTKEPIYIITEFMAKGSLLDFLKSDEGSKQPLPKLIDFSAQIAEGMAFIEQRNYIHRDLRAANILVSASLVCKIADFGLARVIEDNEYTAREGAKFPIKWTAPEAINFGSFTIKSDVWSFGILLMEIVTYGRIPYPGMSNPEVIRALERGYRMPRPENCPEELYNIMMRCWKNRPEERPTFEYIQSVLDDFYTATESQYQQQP
# Method: as §1
# Her4 = Her4 (Homo sapiens, UniProt Q15303); experiment: Kinase screening assay (mobility shift, LabChip); type: biochemical; conditions: 0.5 micromolar compound
# Method: as §1
# KDR = KDR (Homo sapiens, UniProt P35968); experiment: Kinase screening assay (mobility shift, LabChip); type: biochemical; conditions: 0.5 micromolar compound
# Chain of KDR (P35968 20-1356): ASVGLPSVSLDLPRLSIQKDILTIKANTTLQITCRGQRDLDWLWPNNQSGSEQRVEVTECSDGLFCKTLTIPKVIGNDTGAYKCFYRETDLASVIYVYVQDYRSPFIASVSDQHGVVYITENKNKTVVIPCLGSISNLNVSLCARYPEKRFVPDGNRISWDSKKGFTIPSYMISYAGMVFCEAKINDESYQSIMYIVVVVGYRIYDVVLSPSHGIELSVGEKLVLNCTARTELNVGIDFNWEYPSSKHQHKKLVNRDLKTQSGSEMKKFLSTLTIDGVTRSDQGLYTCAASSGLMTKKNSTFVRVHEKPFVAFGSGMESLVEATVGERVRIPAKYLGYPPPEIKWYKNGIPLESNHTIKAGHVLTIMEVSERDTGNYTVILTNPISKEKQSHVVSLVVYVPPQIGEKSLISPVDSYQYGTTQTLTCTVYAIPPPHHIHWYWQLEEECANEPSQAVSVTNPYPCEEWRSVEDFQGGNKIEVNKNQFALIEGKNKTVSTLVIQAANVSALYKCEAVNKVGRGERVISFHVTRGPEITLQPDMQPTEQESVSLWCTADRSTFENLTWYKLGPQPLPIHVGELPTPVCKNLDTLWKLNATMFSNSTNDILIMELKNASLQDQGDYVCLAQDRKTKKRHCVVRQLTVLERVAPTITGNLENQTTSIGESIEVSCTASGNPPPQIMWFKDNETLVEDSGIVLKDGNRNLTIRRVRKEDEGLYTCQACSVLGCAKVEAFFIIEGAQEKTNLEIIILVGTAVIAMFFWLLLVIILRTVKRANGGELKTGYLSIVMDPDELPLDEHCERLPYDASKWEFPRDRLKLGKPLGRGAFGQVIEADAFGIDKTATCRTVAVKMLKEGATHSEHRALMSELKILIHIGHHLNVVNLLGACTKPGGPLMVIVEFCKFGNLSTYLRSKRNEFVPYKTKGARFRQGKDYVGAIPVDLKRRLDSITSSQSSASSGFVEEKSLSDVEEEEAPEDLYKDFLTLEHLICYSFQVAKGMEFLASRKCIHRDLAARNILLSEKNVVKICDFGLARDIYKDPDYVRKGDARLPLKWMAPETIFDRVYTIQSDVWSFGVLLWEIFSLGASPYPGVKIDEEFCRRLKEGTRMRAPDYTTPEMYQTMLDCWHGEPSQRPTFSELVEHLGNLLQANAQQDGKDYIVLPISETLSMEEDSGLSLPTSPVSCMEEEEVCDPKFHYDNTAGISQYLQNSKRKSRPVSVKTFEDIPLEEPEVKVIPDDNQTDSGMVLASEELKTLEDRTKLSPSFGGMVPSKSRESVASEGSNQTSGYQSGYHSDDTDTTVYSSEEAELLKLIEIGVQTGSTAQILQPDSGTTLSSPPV
# Method: as §1
# KIT = KIT (Homo sapiens, UniProt P10721); experiment: Kinase screening assay (mobility shift, LabChip); type: biochemical; conditions: 0.5 micromolar compound
# Chain of KIT (P10721 26-976): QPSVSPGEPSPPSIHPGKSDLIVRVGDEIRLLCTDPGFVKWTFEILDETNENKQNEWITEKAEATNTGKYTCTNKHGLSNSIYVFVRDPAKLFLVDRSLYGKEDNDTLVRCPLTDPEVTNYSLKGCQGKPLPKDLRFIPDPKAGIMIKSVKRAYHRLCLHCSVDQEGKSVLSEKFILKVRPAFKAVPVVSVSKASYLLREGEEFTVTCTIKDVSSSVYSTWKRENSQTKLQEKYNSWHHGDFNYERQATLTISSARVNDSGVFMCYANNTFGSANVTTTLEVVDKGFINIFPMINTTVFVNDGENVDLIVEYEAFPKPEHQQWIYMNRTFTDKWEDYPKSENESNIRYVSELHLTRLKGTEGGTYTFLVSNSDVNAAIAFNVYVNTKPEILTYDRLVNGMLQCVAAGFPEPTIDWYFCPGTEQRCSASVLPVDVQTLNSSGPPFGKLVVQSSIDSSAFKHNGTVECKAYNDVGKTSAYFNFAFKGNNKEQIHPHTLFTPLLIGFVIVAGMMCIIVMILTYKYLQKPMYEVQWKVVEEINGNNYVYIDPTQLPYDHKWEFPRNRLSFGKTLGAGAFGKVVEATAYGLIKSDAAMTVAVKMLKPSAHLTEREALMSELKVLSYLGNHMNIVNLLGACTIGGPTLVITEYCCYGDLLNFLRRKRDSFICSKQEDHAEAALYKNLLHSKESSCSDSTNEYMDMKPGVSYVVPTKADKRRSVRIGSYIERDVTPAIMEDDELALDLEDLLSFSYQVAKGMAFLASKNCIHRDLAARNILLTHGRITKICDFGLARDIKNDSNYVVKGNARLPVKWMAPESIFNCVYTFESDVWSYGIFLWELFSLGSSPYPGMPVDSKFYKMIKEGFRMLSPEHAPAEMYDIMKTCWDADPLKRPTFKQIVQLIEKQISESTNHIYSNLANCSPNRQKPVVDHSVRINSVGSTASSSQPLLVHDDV
# Method: as §1
# LCK = LCK (Homo sapiens, UniProt P06239); experiment: Kinase screening assay (mobility shift, LabChip); type: biochemical; conditions: 0.5 micromolar compound
# Chain of LCK (P06239 whole entry): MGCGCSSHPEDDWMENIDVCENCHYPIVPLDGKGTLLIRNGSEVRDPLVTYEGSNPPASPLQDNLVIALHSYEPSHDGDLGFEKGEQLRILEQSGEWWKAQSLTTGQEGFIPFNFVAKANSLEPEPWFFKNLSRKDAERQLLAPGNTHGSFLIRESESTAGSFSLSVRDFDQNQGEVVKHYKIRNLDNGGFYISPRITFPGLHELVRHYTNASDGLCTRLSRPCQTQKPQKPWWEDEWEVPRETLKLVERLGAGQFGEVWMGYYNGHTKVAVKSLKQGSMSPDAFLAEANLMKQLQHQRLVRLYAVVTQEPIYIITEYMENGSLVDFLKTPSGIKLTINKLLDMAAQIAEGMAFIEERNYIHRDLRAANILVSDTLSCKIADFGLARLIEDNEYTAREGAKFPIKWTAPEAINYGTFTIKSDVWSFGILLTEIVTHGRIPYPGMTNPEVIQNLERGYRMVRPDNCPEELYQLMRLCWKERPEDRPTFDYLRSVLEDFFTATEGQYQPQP
# Method: as §1
# LYNa = LYNa (Homo sapiens, UniProt P07948); experiment: Kinase screening assay (mobility shift, LabChip); type: biochemical; conditions: 0.5 micromolar compound
# Method: as §1
# PDGFR alpha = PDGFR alpha (Homo sapiens, UniProt P16234); experiment: Kinase screening assay (mobility shift, LabChip); type: biochemical; conditions: 0.5 micromolar compound
# Method: as §1
# RET = RET (Homo sapiens, UniProt P07949); experiment: Kinase screening assay (mobility shift, LabChip); type: biochemical; conditions: 0.5 micromolar compound
# Chain of RET (P07949 29-1114): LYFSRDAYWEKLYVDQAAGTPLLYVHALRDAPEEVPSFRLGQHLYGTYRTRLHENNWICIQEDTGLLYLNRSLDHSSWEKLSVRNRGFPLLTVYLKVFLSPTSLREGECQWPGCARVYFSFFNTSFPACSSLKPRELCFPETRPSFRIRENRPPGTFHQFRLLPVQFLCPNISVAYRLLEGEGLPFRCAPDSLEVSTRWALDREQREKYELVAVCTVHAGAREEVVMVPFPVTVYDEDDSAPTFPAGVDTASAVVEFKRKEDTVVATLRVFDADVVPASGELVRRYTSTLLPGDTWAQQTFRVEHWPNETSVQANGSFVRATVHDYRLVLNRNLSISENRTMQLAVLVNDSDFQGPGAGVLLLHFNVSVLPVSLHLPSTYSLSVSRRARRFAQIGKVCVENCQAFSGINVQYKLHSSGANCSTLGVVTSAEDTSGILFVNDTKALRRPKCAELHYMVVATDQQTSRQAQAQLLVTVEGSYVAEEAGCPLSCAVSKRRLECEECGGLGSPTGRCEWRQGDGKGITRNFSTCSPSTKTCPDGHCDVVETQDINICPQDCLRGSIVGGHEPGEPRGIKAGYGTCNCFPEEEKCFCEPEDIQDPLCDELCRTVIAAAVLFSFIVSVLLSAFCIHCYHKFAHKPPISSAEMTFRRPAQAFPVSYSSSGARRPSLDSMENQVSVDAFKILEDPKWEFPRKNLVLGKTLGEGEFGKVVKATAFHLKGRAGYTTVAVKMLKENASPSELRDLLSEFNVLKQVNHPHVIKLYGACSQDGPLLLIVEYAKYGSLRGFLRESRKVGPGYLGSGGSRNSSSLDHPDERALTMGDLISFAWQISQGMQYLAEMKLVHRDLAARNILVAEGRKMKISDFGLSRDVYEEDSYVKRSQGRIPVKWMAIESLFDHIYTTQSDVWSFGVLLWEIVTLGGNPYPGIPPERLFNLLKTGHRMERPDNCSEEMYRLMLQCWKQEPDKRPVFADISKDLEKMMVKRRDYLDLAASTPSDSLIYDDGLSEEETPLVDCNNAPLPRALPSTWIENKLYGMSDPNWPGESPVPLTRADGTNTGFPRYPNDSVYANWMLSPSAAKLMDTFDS
# Method: as §1
# SRC = SRC (Homo sapiens, UniProt P12931); experiment: Kinase screening assay (mobility shift, LabChip); type: biochemical; conditions: 0.5 micromolar compound
# Method: as §1
# YES = YES (Homo sapiens, UniProt P07947); experiment: Kinase screening assay (mobility shift, LabChip); type: biochemical; conditions: 0.5 micromolar compound
# Method: as §1
# ABL = ABL (Homo sapiens, UniProt P00519); experiment: Kinase screening assay (mobility shift, LabChip); type: biochemical; conditions: 0.5 micromolar compound
# Method: as §1
# BRK = BRK (Homo sapiens, UniProt Q13882); experiment: Kinase screening assay (mobility shift, LabChip); type: biochemical; conditions: 0.5 micromolar compound
# Method: as §1
# [1] = tested on: MDA-MB-231 breast cancer cells; experiment: Cell viability assay (PrestoBlue); type: cell-based; conditions: Homo sapiens, 120 h, 5 days treatment
# Method: (§2) Cells were grown in Dulbecco's Modified Eagle Medium (DMEM) or Roswell Park Memorial Institute (RPMI) medium supplemented with serum (10% fetal bovine serum) and L-glutamine (2 mM) and incubated in a Heracell 240i tissue culture incubator at 37° C. and 5% Co2.
# (§3) After 48 hours, the media was aspirated from each well and replaced with 95 μl of fresh medium. Compounds, including DMSO, were prepared at 20× in DMEM medium in a separate 96-well intermediate plate. 5 μl from the intermediate plate was then added to each well containing cells. Untreated cells were incubated with DMSO (0.1% v/v). After 5 days, PrestoBlue™ cell viability reagent (10 μl) was added to each well and the plates incubated for 60-90 min. Fluorescence emission was detected using a fluorescence plate reader (excitation 540 nm, emission 590 nm). All conditions were normalised to the untreated cells (100%) and dose-response curves were fitted using GraphPad Prism software.
# [2] = tested on: SRC and its family members; experiment: Kinase screening assay, selectivity across the panel; type: biochemical; conditions: kinase panel of Table 1, 0.5 micromolar
# Method: as §1
# cancer cell lines = experiment: Screening in cancer cell lines (cell viability); type: cell-based
# Method: as §2, §3
inhibition at 0.5 µM (EGFR) [%],inhibition at 0.5 µM (FGR) [%],inhibition at 0.5 µM (FYNa) [%],inhibition at 0.5 µM (HCK) [%],inhibition at 0.5 µM (Her4) [%],inhibition at 0.5 µM (KDR) [%],inhibition at 0.5 µM (KIT) [%],inhibition at 0.5 µM (LCK) [%],inhibition at 0.5 µM (LYNa) [%],inhibition at 0.5 µM (PDGFR alpha) [%],inhibition at 0.5 µM (RET) [%],inhibition at 0.5 µM (SRC) [%],inhibition at 0.5 µM (YES) [%],inhibition at 0.5 µM (ABL) [%],inhibition at 0.5 µM (BRK) [%],GI50 [1] [nM],selectivity for SRC and its family members over other kinases [2],SMILES,potency and selectivity in cancer cell lines compared with parent compound 506 (cancer cell lines)
46.1,100,100,101,96.7,2.9,4.4,104,101,13.5,3.8,101,99.7,–,–,–,–,"COc1cc(-c2nn(CCN3CCC(N(C)C)CC3)c3ncnc(N)c23)ccc1NC(=O)OC(C)(C)C [Compound 506, Tert-butyl (4-(4-amino-1-(2-(4-(dimethylamino)piperidin-1-yl)ethyl)-1H-pyrazolo[3,4-d]pyrimidin-3-yl)-2-methoxyphenyl)carbamate, reference compound]",–
58.2,100,100,98.7,94.9,-7.3,2.7,101,101,12.2,-2.3,97.3,102,24.2,99.5,12.5,more selective than compound 506,"COc1cc(-c2nn(CCN3CCC(NC(C)C)CC3)c3ncnc(N)c23)ccc1NC(=O)OC(C)(C)C [Compound 8, tert-butyl (4-(4-amino-1-(2-(4-(isopropylamino)piperidin-1-yl)ethyl)-1H-pyrazolo[3,4-d]pyrimidin-3-yl)-2-methoxyphenyl)carbamate]",–
46.3,101,99.4,105,97.6,1.7,2.8,107,102,13.6,-0.3,102,99.7,29.2,98.5,16.2,more selective than compound 506,"CNC1CCN(CCn2nc(-c3ccc(NC(=O)OC(C)(C)C)c(OC)c3)c3c(N)ncnc32)CC1 [Compound 5a, tert-butyl (4-(4-amino-1-(2-(4-(methylamino)piperidin-1-yl)ethyl)-1H-pyrazolo[3,4-d]pyrimidin-3-yl)-2-methoxyphenyl)carbamate]",retains the potency and selectivity characteristics of the parent compound 506
